Measured values reported in US20230141101A1, “PDE4 INHIBITOR COMPOUND AND MEDICAL USE THEREOF” (Suzhou Longbotai Pharmaceuticals Co., Ltd., priority 2020, published 2023).

Columns and labels:
Format in all cases: biochemical
Settings in all cases: 20 nM
PDE4A1A = molecular target: T1, PDE4A1A (Homo sapiens, UniProt P27815); assay: PDE4 inhibitory activity assay (FAM-cAMP enzymatic reaction), PDE4A1A
T1 construct: purchased BPS 60040
Outline: (§1)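 Human PDE4A1A, PDE4B1 or PDE4D2 preincubated with compound 15 min at room temperature, then FAM-cAMP substrate added; reaction 30 min at room temperature before stop solution and further 60 min. Fluorescence read on multilabel counter; IC50 fitted from inhibition rates.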

PDE4D2 = PDE4D2 (Homo sapiens, UniProt Q08499); assay: PDE4 inhibitory activity assay (FAM-cAMP enzymatic reaction), PDE4D2
PDE4D2, sequence (Q08499 303-809): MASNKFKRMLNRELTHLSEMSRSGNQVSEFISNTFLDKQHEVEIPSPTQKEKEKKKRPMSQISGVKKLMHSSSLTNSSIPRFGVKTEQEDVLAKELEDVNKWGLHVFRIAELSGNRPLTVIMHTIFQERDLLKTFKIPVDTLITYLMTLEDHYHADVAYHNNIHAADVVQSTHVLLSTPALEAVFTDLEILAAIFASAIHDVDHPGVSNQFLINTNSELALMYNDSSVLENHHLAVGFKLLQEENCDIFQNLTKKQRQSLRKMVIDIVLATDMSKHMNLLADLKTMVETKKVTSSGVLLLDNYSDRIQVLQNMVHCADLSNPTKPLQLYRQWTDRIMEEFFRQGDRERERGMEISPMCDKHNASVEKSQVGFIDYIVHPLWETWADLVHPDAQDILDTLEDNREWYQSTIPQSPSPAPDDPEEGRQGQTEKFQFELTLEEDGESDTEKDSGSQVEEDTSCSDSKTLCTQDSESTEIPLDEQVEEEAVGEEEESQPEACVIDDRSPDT
Outline: as §1

PDE4B1 = molecular target: T2, PDE4B1 (Homo sapiens, UniProt Q07343); assay: PDE4 inhibitory activity assay (FAM-cAMP enzymatic reaction), PDE4B1
T2 construct: purchased BPS 60041
T2 sequence (Q07343 whole entry): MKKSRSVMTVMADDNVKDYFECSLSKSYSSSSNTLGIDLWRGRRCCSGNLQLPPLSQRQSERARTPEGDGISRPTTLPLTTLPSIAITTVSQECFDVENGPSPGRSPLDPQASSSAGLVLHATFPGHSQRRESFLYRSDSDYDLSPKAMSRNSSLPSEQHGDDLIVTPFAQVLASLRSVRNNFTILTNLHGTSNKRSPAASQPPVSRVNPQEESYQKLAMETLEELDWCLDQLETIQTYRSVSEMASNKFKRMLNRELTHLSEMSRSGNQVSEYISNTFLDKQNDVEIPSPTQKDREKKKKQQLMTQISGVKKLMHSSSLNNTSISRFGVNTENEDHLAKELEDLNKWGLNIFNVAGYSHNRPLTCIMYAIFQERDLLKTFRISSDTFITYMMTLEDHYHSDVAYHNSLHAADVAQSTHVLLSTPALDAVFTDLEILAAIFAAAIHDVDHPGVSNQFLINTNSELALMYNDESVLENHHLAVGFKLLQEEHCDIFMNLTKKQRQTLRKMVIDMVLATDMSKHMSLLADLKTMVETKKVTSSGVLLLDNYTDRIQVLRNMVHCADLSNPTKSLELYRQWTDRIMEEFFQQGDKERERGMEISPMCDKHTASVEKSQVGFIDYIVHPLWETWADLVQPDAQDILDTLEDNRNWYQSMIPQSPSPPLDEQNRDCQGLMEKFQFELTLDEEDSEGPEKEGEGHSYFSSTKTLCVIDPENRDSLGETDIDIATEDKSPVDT
Outline: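 Each isoform is incubated with test compound for 15 min at room temperature before FAM-cAMP substrate starts a 30-min reaction.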

T1 sequence (P27815 1-647 isoform P27815-4): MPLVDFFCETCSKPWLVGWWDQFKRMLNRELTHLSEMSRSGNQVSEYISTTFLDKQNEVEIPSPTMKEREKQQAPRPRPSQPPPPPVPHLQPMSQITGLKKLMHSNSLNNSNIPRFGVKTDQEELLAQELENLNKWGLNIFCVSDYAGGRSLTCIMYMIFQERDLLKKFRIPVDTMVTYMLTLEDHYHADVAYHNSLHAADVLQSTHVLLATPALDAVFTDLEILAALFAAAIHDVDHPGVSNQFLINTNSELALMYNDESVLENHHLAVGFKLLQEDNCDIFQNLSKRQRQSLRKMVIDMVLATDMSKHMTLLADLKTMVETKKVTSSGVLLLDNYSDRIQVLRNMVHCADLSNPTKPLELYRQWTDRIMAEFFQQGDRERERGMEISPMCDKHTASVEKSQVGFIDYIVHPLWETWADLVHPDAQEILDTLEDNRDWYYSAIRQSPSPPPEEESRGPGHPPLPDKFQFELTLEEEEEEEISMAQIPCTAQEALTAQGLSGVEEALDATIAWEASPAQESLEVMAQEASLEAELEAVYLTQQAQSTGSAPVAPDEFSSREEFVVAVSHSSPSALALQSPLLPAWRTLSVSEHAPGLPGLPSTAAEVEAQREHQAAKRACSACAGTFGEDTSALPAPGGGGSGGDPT

Row | PDE4 A1 inhibitory effect at 20 nM (PDE4A1A) | PDE4 D2 inhibitory effect at 20 nM (PDE4D2) | PDE4 B1 inhibitory effect at 20 nM (PDE4B1) | Compound
1 | + | + | + | CCOc1nc([C@@H](CS(C)(=O)=O)n2c(=O)n(C)c3c(C)c(-c4ccccn4)cnc32)ccc1OC [Ex. 19, (S)-3-(1-(6-ethoxy-5-methoxypyridin-2-yl)-2-(methylsulfonyl)ethyl)-1,7-dimethyl-6-(pyridin-2-yl)-1H-imidazo[4,5-b]pyridin-2(3H)-one]
2 | + | + | + | CCOc1nc([C@@H](CS(C)(=O)=O)n2c(=O)n(C)c3cc(-c4cccc(F)c4C)cnc32)ccc1OC [Ex. 112, (S)-6-(3-fluoro-2-methylphenyl)-3-(1-(6-ethoxy-5-methoxypyridin-2-yl)-2-(methylsulfonyl)ethyl)-1-methyl-1H-imidazo[4,5-b]pyridin-2(3H)-one]
3 | + | + | + | CCOc1nc([C@@H](CS(C)(=O)=O)N2C(=O)c3csc(NC(=O)CC)c3C2=O)ccc1OC [Ex. 226, (S)—N-(5-(1-(6-ethoxy-5-methoxypyridin-2-yl)-2-(methylsulfonyl)ethyl)-4,6-dioxo-5,6-dihydro-4H-thieno[3,4-c]pyrrol-1-yl)propionamide]
4 | + | + | + | CCOc1nc([C@@H](CS(C)(=O)=O)n2c(=O)[nH]c3cc(-c4ccccc4C(F)(F)F)cnc32)ccc1OC [Ex. 85, (S)-3-(1-(6-ethoxy-5-methoxypyridin-2-yl)-2-(methylsulfonyl)ethyl)-6-(2-(trifluoromethyl)phenyl)-1H-imidazo[4,5-b]pyridin-2(3H)-one]
5 | + | + | + | CCOc1nc([C@@H](CS(C)(=O)=O)n2c(=O)n(CCOC)c3c(C)c(-c4ccccn4)cnc32)ccc1OC [Ex. 20, (S)-3-(1-(6-ethoxy-5-methoxypyridin-2-yl)-2-(methylsulfonyl)ethyl)-1-(2-methoxyethyl)-7-methyl-6-(pyridin-2-yl)-1H-imidazo[4,5-b]pyridin-2(3H)-one]
6 | − | − | − | CCOc1nc([C@@H](CS(C)(=O)=O)n2c(=O)[nH]c3c(C)c(-c4ccccc4C#N)cnc32)ccc1OC [Ex. 15, (S)-2-(3-(1-(6-ethoxy-5-methoxypyridin-2-yl)-2-(methylsulfonyl)ethyl)-7-methyl-2-oxo-2,3-dihydro-1H-imidazo[4,5-b]pyridin-6-yl)benzonitrile]
7 | + | + | + | CCOc1nc([C@@H](CS(C)(=O)=O)n2c(=O)[nH]c3c(C)c(-c4ccc(F)cc4F)cnc32)ccc1OC [Ex. 28, (S)-6-(2,4-difluorophenyl)-3-(1-(6-ethoxy-5-methoxypyridin-2-yl)-2-(methylsulfonyl)ethyl)-7-methyl-1H-imidazo[4,5-b]pyridin-2(3H)-one]
8 | + | + | + | CCOc1nc([C@@H](CS(C)(=O)=O)n2c(=O)[nH]c3cc(-c4ccc(F)cc4OC)cnc32)ccc1OC [Ex. 119, (S)-6-(4-fluoro-2-methoxyphenyl)-3-(1-(6-ethoxy-5-methoxypyridin-2-yl)-2-(methylsulfonyl)ethyl)-1H-imidazo[4,5-b]pyridin-2(3H)-one]
9 | − | − | − | CCOc1nc([C@H](CS(C)(=O)=O)n2c(=O)[nH]c3c(C)c(-c4ccccn4)cnc32)ccc1OC [Ex. 18, (R)-3-(1-(6-ethoxy-5-methoxypyridin-2-yl)-2-(methylsulfonyl)ethyl)-7-methyl-6-(pyridin-2-yl)-1H-imidazo[4,5-b]pyridin-2(3H)-one]
10 | + | + | + | CCOc1nc([C@@H](CS(C)(=O)=O)n2c(=O)n(C)c3cc(-c4c(C)cccc4C)cnc32)ccc1OC [Ex. 106, (S)-6-(2,6-dimethylphenyl)-3-(1-(6-ethoxy-5-methoxypyridin-2-yl)-2-(methylsulfonyl)ethyl)-1-methyl-1H-imidazo[4,5-b]pyridin-2(3H)-one]
11 | + | + | + | CCOc1nc([C@@H](CS(C)(=O)=O)n2c(=O)n(CC(F)F)c3c(C)c(-c4ccccc4)cnc32)ccc1OC [Ex. 57, (S)-1-(2,2-difluoroethyl)-3-(1-(6-ethoxy-5-methoxypyridin-2-yl)-2-(methylsulfonyl)ethyl)-7-methyl-6-phenyl-1H-imidazo[4,5-b]pyridin-2(3H)-one]
12 | + | + | + | CCOc1nc([C@@H](CS(C)(=O)=O)n2c(=O)n(C)c3cc(-c4ccc(F)cc4)ccc32)ccc1OC [Ex. 137, (S)-1-(1-(6-ethoxy-5-methoxypyridin-2-yl)-2-(methylsulfonyl)ethyl)-3-methyl-5-(4-fluorophenyl)-1H-benzo[d]imidazol-2(3H) one]
13 | + | + | + | CCOc1ccccc1-c1ccc2c(c1)[nH]c(=O)n2[C@H](CS(C)(=O)=O)c1ccc(OC)c(OCC)n1 [Ex. 192, (S)-1-(1-(6-ethoxy-5-methoxypyridin-2-yl)-2-(methylsulfonyl)ethyl)-5-(2-ethoxyphenyl)-1H-benzo[d]imidazol-2(3H)-one]
14 | + | + | + | CCOc1nc([C@@H](CS(C)(=O)=O)n2c(=O)[nH]c3c(C)c(-c4ccc(OC)cc4F)cnc32)ccc1OC [Ex. 43, (S)-6-(2-fluoro-4-methoxyphenyl)-3-(1-(6-ethoxy-5-methoxypyridin-2-yl)-2-(methylsulfonyl)ethyl)-7-methyl-1H-imidazo[4,5-b]pyridin-2(3H)-one]
15 | + | + | + | CCOc1nc([C@@H](CS(C)(=O)=O)n2c(=O)n(C)c3cc(-c4ccc(F)cc4F)ccc32)ccc1OC [Ex. 157, (S)-5-(2,4-difluorophenyl)-1-(1-(6-ethoxy-5-methoxypyridin-2-yl)-2-(methylsulfonyl)ethyl)-3-methyl-1H-benzo[d]imidazol-2(3H)-one]
16 | + | + | + | CCOc1nc([C@@H](CS(C)(=O)=O)n2c(=O)n(C)c3c(C)c(-c4ccc(F)cc4)cnc32)ccc1OC(F)F [Ex. 67, (S)-3-(1-(5-(difluoromethoxy)-6-ethoxypyridin-2-yl)-2-(methylsulfonyl)ethyl)-6-(4-fluorophenyl)-1,7-dimethyl-1H-imidazo[4,5-b]pyridin-2(3H)-one]
17 | + | + | + | CCOc1nc([C@@H](CS(C)(=O)=O)n2c(=O)[nH]c3cc(-c4ccc(F)cc4F)ccc32)ccc1OC [Ex. 156, (S)-5-(2,4-difluorophenyl)-1-(1-(6-ethoxy-5-methoxypyridin-2-yl)-2-(methylsulfonyl)ethyl)-1H-benzo[d]imidazol-2(3H)-one]
